We go through twelve compounds from US12258327B2, “5-membered heteroaryl-containing aminopyridine compounds as EGFR inhibitors” (YUHAN CORPORATION, priority 2021, dated 2025).

One experiment concerns the target EGFR del19/T790M/C797S (Homo sapiens, UniProt P00533, C797S/DEL746-750/T790M). Nature of the experiment: Biochemical EGFR kinase assay (Lance Ultra TR-FRET), triple mutant del19/T790M/C797S. The procedure:
(§1) Biochemical EGFR kinase assays were conducted using Lance Ultra time-resolved fluorescence resonance energy transfer (TR-FRET) technology from Perkin-Elmer. Compounds of the invention were initially diluted to 20 mM in 100% DMSO for storage and made into kinase buffer solution to create a compound concentration ranging from 0.003 μM and 10 μM.
(§2) Each kinase reactions were incubated at room temperature for 1 hour and then stopped by the addition of 4 μL of stop solution (10 mM EDTA). The specific Europium-labeled-anti-phosphopeptide antibody (PerkinElmer, AD0069) diluted in LANCE detection buffer was then added to a final concentration of 2 nM. After 60 minutes incubation at room temperature the LANCE signal was measured on an EnVision Multilabel Reader (Perkin-Elmer). Excitation wavelength was set at 320 nm and emission monitored at 615 nm (donor) and 665 nm (acceptor). The IC50 values were determined using GraphPad prism software (GraphPad Software, Inc., San Diego, CA, USA).

The target of a further experiment is EGFR L858R/T790M/C797S (Homo sapiens, UniProt P00533, C797S/L858R/T790M). The experiment is described as follows: Biochemical EGFR kinase assay (Lance Ultra TR-FRET), triple mutant L858R/T790M/C797S. The procedure: as §1, §2
On the technique in general: In TR-FRET formats the signal depends on donor and acceptor labels being close together.

A further experiment has as its target EGFR L858R/C797S (Homo sapiens, UniProt P00533, C797S/L858R). The experiment is described as follows: Biochemical EGFR kinase assay (Lance Ultra TR-FRET), double mutant L858R/C797S. The procedure: as §1, §2
A further experiment has as its target EGFR wildtype (WT) (Homo sapiens, UniProt P00533). Nature of the experiment: Biochemical EGFR kinase assay (Lance Ultra TR-FRET), wildtype. Here is the method: as §1, §2
Where [1] appears, read: Km ATP, read-out: IC50 del19/T790M/C797S (nM) Km ATP.
Setting [2] is: Km ATP, read-out: IC50 L858R/T790M/C797S (nM) Km ATP.
Setting [3] is: Km ATP, read-out: IC50 L858R/C797S (nM) Km ATP.
[4] abbreviates: Km ATP, read-out: IC50 WT (nM) Km ATP.
Setting [5] is: IC50 del19/T790M/C797S (nM) 100 μM ATP, 100 μM ATP.
The mark [6] stands for this setting: IC50 L858R/T790M/C797S (nM) 100 μM ATP, 100 μM ATP.
Setting [7] is: IC50 L858R/C797S (nM) 100 μM ATP, 100 μM ATP.
[8] abbreviates: IC50 WT (nM) 100 μM ATP, 100 μM ATP.

Each structure is given as a SMILES string. Like-named read-outs stand apart in the source and are kept apart here. A value given as a limit tells only on which side of the number the result lay.

Chain of EGFR L858R/C797S (P00533 25-1210 C797S/L858R): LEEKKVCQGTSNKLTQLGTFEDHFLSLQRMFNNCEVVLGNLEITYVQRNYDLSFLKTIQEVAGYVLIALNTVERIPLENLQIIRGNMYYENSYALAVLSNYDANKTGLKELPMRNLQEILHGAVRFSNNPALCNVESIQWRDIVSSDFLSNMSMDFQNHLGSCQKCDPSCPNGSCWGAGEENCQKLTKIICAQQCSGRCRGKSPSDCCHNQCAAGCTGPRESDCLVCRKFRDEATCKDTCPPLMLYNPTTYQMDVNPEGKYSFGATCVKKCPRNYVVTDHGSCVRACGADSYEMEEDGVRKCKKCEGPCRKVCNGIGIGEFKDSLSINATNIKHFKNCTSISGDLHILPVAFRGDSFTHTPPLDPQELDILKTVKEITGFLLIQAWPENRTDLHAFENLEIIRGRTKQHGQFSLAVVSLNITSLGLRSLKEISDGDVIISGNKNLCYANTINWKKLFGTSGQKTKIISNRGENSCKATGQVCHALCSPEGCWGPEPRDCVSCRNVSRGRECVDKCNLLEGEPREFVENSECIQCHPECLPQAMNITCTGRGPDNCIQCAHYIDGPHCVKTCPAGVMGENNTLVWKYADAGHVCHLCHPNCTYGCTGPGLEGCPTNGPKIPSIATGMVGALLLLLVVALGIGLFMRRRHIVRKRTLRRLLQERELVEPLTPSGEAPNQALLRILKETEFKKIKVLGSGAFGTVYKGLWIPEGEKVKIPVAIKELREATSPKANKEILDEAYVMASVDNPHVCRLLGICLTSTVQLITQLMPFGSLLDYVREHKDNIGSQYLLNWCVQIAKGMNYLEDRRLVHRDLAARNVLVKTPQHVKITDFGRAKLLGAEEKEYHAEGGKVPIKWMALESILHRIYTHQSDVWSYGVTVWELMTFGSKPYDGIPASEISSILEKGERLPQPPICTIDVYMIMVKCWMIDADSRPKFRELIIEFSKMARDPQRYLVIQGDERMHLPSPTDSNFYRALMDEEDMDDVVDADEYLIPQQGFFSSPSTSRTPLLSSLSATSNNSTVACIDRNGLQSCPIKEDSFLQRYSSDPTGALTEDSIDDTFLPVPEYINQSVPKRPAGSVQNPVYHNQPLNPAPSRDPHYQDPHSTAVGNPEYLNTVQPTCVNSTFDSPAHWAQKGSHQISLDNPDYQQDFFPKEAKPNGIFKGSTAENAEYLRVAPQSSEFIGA
Chain of EGFR wildtype (WT) (P00533 25-1210): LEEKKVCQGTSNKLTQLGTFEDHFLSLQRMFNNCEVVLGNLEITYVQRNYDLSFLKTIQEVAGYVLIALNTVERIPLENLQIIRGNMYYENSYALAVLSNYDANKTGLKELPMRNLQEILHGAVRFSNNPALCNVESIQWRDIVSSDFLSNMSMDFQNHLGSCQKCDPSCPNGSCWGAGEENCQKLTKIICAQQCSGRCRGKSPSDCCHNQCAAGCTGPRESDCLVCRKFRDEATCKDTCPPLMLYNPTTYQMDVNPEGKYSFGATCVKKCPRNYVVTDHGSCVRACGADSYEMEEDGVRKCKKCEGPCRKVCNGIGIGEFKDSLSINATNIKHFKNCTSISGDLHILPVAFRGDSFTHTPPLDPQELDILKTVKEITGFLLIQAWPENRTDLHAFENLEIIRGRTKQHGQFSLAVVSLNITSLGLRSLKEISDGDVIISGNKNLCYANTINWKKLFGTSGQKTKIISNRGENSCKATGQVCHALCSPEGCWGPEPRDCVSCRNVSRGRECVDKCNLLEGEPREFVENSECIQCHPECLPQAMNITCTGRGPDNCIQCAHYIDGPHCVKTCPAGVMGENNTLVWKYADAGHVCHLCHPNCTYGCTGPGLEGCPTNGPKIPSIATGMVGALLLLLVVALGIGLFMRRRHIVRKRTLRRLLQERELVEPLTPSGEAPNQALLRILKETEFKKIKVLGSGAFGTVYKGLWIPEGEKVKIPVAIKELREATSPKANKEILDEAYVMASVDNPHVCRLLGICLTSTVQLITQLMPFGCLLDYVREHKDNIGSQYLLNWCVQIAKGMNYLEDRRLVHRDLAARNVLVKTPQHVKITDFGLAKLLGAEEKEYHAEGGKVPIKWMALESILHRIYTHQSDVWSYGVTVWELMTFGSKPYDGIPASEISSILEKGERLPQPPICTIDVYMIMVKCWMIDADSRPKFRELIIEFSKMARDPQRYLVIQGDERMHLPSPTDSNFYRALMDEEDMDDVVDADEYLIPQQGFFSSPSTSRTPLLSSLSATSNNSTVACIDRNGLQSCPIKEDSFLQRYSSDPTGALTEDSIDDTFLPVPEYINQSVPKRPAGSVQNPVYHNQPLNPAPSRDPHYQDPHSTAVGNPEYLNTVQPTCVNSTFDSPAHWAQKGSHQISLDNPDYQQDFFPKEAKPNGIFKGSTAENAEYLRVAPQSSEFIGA
Chain of EGFR del19/T790M/C797S (P00533 with tags, fused parts or gaps DEL746-750/T790M/C797S): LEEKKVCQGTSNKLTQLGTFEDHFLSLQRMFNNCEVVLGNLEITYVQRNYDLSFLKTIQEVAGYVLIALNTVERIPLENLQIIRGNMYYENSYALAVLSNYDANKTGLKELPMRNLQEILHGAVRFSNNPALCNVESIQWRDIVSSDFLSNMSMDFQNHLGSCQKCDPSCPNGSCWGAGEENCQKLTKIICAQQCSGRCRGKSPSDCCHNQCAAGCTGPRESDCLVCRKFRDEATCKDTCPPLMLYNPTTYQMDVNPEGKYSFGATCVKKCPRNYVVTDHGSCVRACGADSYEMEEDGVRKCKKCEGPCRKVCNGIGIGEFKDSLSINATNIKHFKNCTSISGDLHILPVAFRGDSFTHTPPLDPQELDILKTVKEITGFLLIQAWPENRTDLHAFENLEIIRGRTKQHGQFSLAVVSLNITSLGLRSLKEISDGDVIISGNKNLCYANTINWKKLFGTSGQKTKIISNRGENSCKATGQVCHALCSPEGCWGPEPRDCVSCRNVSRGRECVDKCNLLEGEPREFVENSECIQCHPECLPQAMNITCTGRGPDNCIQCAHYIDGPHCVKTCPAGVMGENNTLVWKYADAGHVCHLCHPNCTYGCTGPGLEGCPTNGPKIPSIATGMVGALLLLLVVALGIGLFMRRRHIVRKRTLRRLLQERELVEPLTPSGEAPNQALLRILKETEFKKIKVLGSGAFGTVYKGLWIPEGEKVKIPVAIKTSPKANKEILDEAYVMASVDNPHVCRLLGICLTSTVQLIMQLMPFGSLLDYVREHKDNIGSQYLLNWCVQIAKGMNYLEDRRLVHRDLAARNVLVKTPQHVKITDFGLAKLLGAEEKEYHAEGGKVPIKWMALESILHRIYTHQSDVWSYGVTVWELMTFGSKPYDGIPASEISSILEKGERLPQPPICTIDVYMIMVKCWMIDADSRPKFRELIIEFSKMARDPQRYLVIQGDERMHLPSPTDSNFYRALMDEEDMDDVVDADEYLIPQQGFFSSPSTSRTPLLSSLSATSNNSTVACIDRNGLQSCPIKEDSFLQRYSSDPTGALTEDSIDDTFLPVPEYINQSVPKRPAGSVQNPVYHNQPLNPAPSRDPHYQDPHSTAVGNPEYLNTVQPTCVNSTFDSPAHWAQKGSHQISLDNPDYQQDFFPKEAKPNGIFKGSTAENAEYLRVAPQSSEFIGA
Chain of EGFR L858R/T790M/C797S (P00533 25-1210 T790M/C797S/L858R): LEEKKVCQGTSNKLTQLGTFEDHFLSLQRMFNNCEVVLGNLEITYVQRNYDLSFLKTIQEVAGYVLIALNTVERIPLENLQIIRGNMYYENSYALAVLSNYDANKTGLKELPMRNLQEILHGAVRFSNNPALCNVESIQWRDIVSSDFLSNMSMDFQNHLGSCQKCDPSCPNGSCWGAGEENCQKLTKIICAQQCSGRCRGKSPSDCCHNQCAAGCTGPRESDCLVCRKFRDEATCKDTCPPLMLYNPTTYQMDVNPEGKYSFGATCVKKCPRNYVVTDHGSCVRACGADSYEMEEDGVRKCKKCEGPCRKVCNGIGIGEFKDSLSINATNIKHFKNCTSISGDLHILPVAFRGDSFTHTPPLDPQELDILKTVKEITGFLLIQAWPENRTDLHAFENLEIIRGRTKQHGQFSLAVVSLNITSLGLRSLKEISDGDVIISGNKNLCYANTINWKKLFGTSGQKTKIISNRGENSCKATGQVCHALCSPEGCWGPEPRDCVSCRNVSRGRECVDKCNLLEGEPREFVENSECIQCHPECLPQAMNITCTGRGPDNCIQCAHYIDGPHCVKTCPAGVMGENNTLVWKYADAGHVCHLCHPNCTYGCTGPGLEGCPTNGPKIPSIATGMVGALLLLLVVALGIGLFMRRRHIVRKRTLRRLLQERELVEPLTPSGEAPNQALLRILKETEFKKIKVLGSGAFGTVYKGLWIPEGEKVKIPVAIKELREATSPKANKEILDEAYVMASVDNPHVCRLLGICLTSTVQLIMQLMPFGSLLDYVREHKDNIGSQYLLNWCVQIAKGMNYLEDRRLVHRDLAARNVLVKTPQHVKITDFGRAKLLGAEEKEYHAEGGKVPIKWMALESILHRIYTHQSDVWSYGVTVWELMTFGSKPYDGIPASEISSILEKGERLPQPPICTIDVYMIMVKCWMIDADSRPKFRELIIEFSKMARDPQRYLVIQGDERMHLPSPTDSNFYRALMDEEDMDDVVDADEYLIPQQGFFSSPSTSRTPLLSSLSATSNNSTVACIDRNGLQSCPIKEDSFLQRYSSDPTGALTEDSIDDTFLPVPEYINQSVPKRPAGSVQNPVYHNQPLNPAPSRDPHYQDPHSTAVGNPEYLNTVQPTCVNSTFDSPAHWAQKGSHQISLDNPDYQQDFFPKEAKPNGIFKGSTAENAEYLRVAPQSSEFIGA

For the compound `C[C@]1(O)CC[C@@H](Nc2cc(Nc3ccnc(-c4cnn(S(=O)(=O)C5CC5)c4)n3)ncc2-n2ccc(C(F)F)n2)CC1` [Example 172, (1s,4s)-4-((2-((2-(1-(Cyclopropylsulfonyl)-1H-pyrazol-4-yl)pyrimidin-4-yl)amino)-5-(3-(difluoromethyl)-1H-pyrazol-1-yl)pyridin-4-yl)amino)-1-methylcyclohexan-1-ol], the IC50 on EGFR del19/T790M/C797S (setting [1]) was found to be 0.3 nM; on EGFR L858R/T790M/C797S (setting [2]) it was 0.1 nM; at EGFR L858R/C797S (setting [3]), 9.3 nM; on EGFR wildtype (WT) (setting [4]) it was 3.4 nM.
On to `C[C@]1(O)CC[C@@H](Nc2cc(Nc3ccnc(-c4cnn(S(=O)(=O)C5CCCC5)c4)n3)ncc2-c2ccn(C(F)F)n2)CC1` [Example 115, (1s,4s)-4-((2-((2-(1-(Cyclopentylsulfonyl)-1H-pyrazol-4-yl)pyrimidin-4-yl)amino)-5-(1-(difluoromethyl)-1H-pyrazol-3-yl)pyridin-4-yl)amino)-1-methylcyclohexan-1-ol], for which the values for the IC50 at EGFR del19/T790M/C797S (setting [1]), at EGFR L858R/T790M/C797S (setting [2]) and at EGFR wildtype (WT) (setting [4]) were 1.9 nM, 1.3 nM and 20.2 nM, respectively.
Regarding `CC(C)n1ccc(-c2cnc(Nc3ccnc(-c4cnn(S(=O)(=O)C5CC5)c4)n3)cc2N[C@H]2CC[C@@](C)(O)CC2)n1` [Example 84, (1s,4s)-4-((2-((2-(1-(Cyclopropylsulfonyl)-1H-pyrazol-4-yl)pyrimidin-4-yl)amino)-5-(1-isopropyl-1H-pyrazol-3-yl)pyridin-4-yl)amino)-1-methylcyclohexan-1-ol], the IC50 on EGFR del19/T790M/C797S (setting [5]) is 0.6 nM; against EGFR L858R/T790M/C797S (setting [6]), 1 nM; against EGFR L858R/C797S (setting [7]), 6.7 nM; against EGFR wildtype (WT) (setting [8]), > 10000 nM.
Regarding `Cn1ccc(-c2cnc(Nc3ccnc(-c4cnn(S(=O)(=O)C5CC5)c4)n3)cc2N[C@H]2CC[C@@H](C(C)(C)O)CC2)n1` [Example 42, 2-((1s,4s)-4-((2-((2-(1-(Cyclopropylsulfonyl)-1H-pyrazol-4-yl)pyrimidin-4-yl)amino)-5-(1-methyl-1H-pyrazol-3-yl)pyridin-4-yl)amino)cyclohexyl)propan-2-ol], the IC50 against EGFR del19/T790M/C797S (setting [5]) worked out at 1.4 nM; on EGFR del19/T790M/C797S (setting [1]), 0.9 nM; against EGFR L858R/T790M/C797S (setting [6]) it was 1.9 nM; on EGFR L858R/T790M/C797S (setting [2]) it was 0.6 nM; on EGFR L858R/C797S (setting [7]) it was 11.3 nM; at EGFR L858R/C797S (setting [3]), 1 nM. Further, the IC50 against EGFR wildtype (WT) (setting [8]) was determined as 7830 nM.
On to `C[C@]1(O)CC[C@@H](Nc2cc(Nc3ccnc(-c4cnn(S(=O)(=O)C5CC5)c4)n3)ncc2-c2ccn(CCC(F)(F)F)n2)CC1` [Example 295, (1s,4s)-4-((2-((2-(1-(Cyclopropylsulfonyl)-1H-pyrazol-4-yl)pyrimidin-4-yl)amino)-5-(1-(3,3,3-trifluoropropyl)-1H-pyrazol-3-yl)pyridin-4-yl)amino)-1-methylcyclohexan-1-ol], for which the IC50 at EGFR del19/T790M/C797S (setting [1]) was 0.7 nM; at EGFR L858R/T790M/C797S (setting [2]), 0.6 nM; at EGFR L858R/C797S (setting [3]) it was 0.3 nM; at EGFR wildtype (WT) (setting [4]), 3.8 nM.
Turning to `CC1(O)CCC(Oc2cc(Nc3ccnc(-c4cnn(S(=O)(=O)C5CC5)c4)n3)ncc2-c2cnn(C(F)F)c2)CC1` (stereo not drawn) [Example 73, 4-((2-((2-(1-(Cyclopropylsulfonyl)-1H-pyrazol-4-yl)pyrimidin-4-yl)amino)-5-(1-(difluoromethyl)-1H-pyrazol-4-yl)pyridin-4-yl)oxy)-1-methylcyclohexan-1-ol], the IC50 at EGFR del19/T790M/C797S (setting [5]) was 0.4 nM; at EGFR del19/T790M/C797S (setting [1]), 0.5 nM; at EGFR L858R/T790M/C797S (setting [6]), 1.1 nM; at EGFR L858R/T790M/C797S (setting [2]), 0.2 nM; on EGFR L858R/C797S (setting [7]), 41.3 nM; on EGFR L858R/C797S (setting [3]), 2.9 nM. The IC50 was > 10000 nM against EGFR wildtype (WT) (setting [8]) and 65.3 nM at EGFR wildtype (WT) (setting [4]).
As for `CC1(O)CCC(Nc2cc(Nc3ccnc(-c4cnn(S(=O)(=O)C5CCOC5)c4)n3)ncc2-c2ccn(C(F)F)n2)CC1` (stereo not drawn) [Example 114, (1s,4s)-4-((5-(1-(Difluoromethyl)-1H-pyrazol-3-yl)-2-((2-(1-((tetrahydrofuran-3-yl)sulfonyl)-1H-pyrazol-4-yl)pyrimidin-4-yl)amino)pyridin-4-yl)amino)-1-methylcyclohexan-1-ol], the IC50 on EGFR del19/T790M/C797S (setting [1]) is 0.6 nM; at EGFR L858R/T790M/C797S (setting [2]), 0.2 nM; at EGFR L858R/C797S (setting [3]) it was 1 nM; at EGFR wildtype (WT) (setting [4]) it was 4.2 nM.
On to `CN1CCN(c2nc(-c3cnc(Nc4ccnc(-c5cnn(S(=O)(=O)C6CC6)c5)n4)cc3N[C@H]3CC[C@@](C)(O)CC3)cs2)CC1` [Example 121, (1s,4s)-4-((2-((2-(1-(Cyclopropylsulfonyl)-1H-pyrazol-4-yl)pyrimidin-4-yl)amino)-5-(2-(4-methylpiperazin-1-yl)thiazol-4-yl)pyridin-4-yl)amino)-1-methylcyclohexan-1-ol], for which the IC50 at EGFR del19/T790M/C797S (setting [5]) turned out to be 1.7 nM; at EGFR del19/T790M/C797S (setting [1]), 1.2 nM; at EGFR L858R/T790M/C797S (setting [6]) it was 1.4 nM; at EGFR L858R/T790M/C797S (setting [2]) it was 0.4 nM; against EGFR L858R/C797S (setting [7]), 19.8 nM; at EGFR L858R/C797S (setting [3]) it was 2.4 nM. Besides, the IC50 at EGFR wildtype (WT) (setting [8]) is 8920 nM; at EGFR wildtype (WT) (setting [4]), 12.8 nM.
Take `C[C@]1(O)CC[C@@H](Nc2cc(Nc3ccnc(-c4cnn(S(=O)(=O)C5CC5)c4)n3)ncc2-c2csc(C(F)(F)F)n2)CC1` [Example 51, (1s,4s)-4-((2-((2-(1-(Cyclopropylsulfonyl)-1H-pyrazol-4-yl)pyrimidin-4-yl)amino)-5-(2-(trifluoromethyl)thiazol-4-yl)pyridin-4-yl)amino)-1-methylcyclohexan-1-ol]: the figures for the IC50 at EGFR del19/T790M/C797S (setting [5]), on EGFR L858R/C797S (setting [7]) and against EGFR wildtype (WT) (setting [8]) were 2.4 nM, 7 nM and > 10000 nM, respectively.
Consider `C[C@]1(O)CC[C@@H](Nc2cc(Nc3ccnc(-c4cnn(S(=O)(=O)C5CC5)c4)n3)ncc2-c2nc(C(F)F)cs2)CC1` [Example 122, (1s,4s)-4-((2-((2-(1-(Cyclopropylsulfonyl)-1H-pyrazol-4-yl)pyrimidin-4-yl)amino)-5-(4-(difluoromethyl)thiazol-2-yl)pyridin-4-yl)amino)-1-methylcyclohexan-1-ol], for which the IC50 at EGFR del19/T790M/C797S (setting [5]) was found to be 0.6 nM; at EGFR L858R/T790M/C797S (setting [6]) it was 0.4 nM; on EGFR L858R/T790M/C797S (setting [2]), 0.3 nM; on EGFR L858R/C797S (setting [7]) it was 8.5 nM; on EGFR wildtype (WT) (setting [8]), 1420 nM; on EGFR wildtype (WT) (setting [4]) it was 9 nM.
Turning to `CC(C)(O)[C@H]1CC[C@@H](Nc2cc(Nc3ccnc(-c4cnn(S(=O)(=O)C5CC5)c4)n3)ncc2-c2ccn(C3COC3)n2)CC1` [Example 283, 2-((1s,4s)-4-((2-((2-(1-(Cyclopropylsulfonyl)-1H-pyrazol-4-yl)pyrimidin-4-yl)amino)-5-(1-(oxetan-3-yl)-1H-pyrazol-3-yl)pyridin-4-yl)amino)cyclohexyl)propan-2-ol], the IC50 stood at 0.6 nM against EGFR del19/T790M/C797S (setting [5]); 0.6 nM at EGFR del19/T790M/C797S (setting [1]); 0.5 nM on EGFR L858R/T790M/C797S (setting [6]); 0.3 nM on EGFR L858R/T790M/C797S (setting [2]); 2.9 nM against EGFR L858R/C797S (setting [7]); 0.6 nM at EGFR L858R/C797S (setting [3]). Further, the IC50 on EGFR wildtype (WT) (setting [8]) is 2000 nM; on EGFR wildtype (WT) (setting [4]) it was 4.8 nM.
For `CN(C)C(=O)C[C@H]1CC[C@@H](Nc2cc(Nc3ccnc(-c4cnn(S(=O)(=O)C5CC5)c4)n3)ncc2-c2cc(C(F)(F)F)n(C)n2)CC1` [Example 258, 2-((1s,4s)-4-((2-((2-(1-(Cyclopropylsulfonyl)-1H-pyrazol-4-yl)pyrimidin-4-yl)amino)-5-(1-methyl-5-(trifluoromethyl)-1H-pyrazol-3-yl)pyridin-4-yl)amino)cyclohexyl)-N,N-dimethylacetamide], the IC50 against EGFR del19/T790M/C797S (setting [5]) is 5.1 nM; on EGFR del19/T790M/C797S (setting [1]), 2.5 nM; at EGFR L858R/T790M/C797S (setting [6]), 2.8 nM; at EGFR L858R/T790M/C797S (setting [2]) it was 1.4 nM; at EGFR L858R/C797S (setting [7]) it was 26.7 nM; on EGFR wildtype (WT) (setting [8]), 2070 nM. The IC50 at EGFR wildtype (WT) (setting [4]) was determined as 9 nM.
